A word on the AC50: it is the concentration at which the activity in the assay is half-maximal.

The text below walks through data of ChEMBL document CHEMBL5291721, “A preclinical secondary pharmacology resource illuminates target-adverse drug reaction associations of marketed drugs” (Nat Commun, 2023).

SMILES strings stand for the structures.

Test [1] deals with Beta-3 adrenergic receptor (Homo sapiens, UniProt P13945).
The next test addresses T1, Androgen receptor (Rattus norvegicus, UniProt P15207).
T1 sequence (P15207 whole entry): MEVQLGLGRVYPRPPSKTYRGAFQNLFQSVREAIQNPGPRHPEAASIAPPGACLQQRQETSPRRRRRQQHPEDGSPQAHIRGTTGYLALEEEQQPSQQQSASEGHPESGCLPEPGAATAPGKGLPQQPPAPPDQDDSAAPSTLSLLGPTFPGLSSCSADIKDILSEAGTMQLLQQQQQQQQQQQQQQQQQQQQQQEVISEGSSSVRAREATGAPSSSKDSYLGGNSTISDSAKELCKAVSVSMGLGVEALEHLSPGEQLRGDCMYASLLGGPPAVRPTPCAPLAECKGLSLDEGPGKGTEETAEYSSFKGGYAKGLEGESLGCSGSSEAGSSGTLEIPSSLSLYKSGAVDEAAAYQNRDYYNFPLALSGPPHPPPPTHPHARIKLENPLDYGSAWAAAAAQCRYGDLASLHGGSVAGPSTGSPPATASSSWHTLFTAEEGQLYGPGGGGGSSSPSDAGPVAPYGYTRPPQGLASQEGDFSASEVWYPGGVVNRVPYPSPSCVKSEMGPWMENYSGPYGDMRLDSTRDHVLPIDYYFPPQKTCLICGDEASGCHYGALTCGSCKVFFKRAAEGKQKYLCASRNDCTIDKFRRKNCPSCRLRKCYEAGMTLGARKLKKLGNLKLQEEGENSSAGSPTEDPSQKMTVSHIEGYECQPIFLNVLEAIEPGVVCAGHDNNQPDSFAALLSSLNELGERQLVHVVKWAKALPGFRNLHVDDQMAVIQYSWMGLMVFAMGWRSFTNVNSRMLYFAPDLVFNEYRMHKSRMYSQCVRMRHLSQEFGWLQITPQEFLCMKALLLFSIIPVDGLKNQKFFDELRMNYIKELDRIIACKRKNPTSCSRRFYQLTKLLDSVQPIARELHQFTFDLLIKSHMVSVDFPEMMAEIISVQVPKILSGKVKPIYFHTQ

In test [2] the target is Voltage-dependent N-type calcium channel subunit alpha-1B (Rattus norvegicus, UniProt Q02294). The test is classed as functional.
Sequence of Voltage-dependent N-type calcium channel subunit alpha-1B (Q02294 whole entry): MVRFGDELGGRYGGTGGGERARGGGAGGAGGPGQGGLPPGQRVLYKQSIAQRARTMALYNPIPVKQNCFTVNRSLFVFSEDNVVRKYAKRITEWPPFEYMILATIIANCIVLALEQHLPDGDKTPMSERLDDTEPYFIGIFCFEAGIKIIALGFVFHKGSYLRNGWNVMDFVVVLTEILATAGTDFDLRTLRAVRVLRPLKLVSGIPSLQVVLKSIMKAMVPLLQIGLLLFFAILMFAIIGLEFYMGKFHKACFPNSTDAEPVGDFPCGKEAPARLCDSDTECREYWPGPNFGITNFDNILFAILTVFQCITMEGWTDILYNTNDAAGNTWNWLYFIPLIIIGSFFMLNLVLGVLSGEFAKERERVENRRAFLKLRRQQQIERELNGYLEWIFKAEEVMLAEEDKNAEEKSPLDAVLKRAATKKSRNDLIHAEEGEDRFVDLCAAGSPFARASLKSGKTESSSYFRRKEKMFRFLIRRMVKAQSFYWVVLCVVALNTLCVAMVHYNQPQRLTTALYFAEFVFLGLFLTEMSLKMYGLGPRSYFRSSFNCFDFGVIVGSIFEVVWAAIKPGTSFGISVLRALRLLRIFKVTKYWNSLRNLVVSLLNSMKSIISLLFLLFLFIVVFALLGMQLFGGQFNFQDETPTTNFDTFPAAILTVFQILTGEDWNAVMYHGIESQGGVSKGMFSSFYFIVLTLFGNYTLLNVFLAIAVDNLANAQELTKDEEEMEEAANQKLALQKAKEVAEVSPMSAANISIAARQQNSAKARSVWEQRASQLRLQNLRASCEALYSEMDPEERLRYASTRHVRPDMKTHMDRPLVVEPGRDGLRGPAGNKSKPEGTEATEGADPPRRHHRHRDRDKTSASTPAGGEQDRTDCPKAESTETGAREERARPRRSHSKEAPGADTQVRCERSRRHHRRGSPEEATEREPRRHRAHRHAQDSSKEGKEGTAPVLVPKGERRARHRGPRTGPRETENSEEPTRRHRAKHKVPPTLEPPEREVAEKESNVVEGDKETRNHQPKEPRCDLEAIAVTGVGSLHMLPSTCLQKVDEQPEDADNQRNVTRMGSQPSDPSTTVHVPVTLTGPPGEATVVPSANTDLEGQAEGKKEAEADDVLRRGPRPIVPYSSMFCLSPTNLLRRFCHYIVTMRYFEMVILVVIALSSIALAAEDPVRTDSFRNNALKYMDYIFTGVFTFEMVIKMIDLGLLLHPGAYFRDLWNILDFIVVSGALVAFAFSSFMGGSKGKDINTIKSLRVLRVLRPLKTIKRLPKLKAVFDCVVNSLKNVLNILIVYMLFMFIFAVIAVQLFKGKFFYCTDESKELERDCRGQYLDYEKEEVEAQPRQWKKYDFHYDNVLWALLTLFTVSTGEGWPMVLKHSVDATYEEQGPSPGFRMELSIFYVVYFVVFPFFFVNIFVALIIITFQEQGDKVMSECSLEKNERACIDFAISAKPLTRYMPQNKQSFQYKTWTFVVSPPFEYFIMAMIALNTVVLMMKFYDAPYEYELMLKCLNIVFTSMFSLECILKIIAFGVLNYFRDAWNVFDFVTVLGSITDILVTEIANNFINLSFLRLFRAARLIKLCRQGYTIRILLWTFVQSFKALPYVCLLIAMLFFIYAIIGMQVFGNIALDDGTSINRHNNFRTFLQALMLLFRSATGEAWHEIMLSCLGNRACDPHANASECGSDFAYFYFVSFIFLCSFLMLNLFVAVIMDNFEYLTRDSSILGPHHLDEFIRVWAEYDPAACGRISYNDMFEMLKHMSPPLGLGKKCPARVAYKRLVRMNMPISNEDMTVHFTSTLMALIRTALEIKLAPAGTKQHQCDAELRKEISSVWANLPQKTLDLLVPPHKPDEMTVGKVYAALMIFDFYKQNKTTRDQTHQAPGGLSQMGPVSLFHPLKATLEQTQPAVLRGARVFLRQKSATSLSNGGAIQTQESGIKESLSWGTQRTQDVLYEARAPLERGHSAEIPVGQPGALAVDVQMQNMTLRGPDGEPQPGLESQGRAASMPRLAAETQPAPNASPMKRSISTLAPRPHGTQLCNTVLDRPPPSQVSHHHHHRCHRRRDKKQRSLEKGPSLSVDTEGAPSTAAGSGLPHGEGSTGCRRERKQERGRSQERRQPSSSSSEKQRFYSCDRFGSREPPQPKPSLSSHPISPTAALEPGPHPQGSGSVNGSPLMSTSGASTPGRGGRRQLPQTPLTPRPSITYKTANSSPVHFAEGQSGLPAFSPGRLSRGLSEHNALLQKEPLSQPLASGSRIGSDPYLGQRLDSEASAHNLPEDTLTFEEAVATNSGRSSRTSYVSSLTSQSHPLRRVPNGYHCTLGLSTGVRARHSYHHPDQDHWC
Test [3] has as its target T2, Muscarinic acetylcholine receptor M2 (Homo sapiens, UniProt P08172).
T2 sequence (P08172 whole entry): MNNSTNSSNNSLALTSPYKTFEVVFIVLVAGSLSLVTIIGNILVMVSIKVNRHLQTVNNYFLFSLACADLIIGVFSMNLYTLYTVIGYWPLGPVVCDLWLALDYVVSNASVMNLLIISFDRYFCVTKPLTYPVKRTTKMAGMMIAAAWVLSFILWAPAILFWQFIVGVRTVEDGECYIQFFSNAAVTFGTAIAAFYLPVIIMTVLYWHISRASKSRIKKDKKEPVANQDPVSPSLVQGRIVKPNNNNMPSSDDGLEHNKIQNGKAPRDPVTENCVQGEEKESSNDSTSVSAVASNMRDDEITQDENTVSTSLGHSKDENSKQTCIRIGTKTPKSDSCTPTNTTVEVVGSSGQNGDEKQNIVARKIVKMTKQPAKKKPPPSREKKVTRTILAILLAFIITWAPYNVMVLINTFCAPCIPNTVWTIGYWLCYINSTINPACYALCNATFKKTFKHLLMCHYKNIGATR

In the next test the target is D(1A) dopamine receptor (Homo sapiens, UniProt P21728).
Sequence of D(1A) dopamine receptor (P21728 whole entry): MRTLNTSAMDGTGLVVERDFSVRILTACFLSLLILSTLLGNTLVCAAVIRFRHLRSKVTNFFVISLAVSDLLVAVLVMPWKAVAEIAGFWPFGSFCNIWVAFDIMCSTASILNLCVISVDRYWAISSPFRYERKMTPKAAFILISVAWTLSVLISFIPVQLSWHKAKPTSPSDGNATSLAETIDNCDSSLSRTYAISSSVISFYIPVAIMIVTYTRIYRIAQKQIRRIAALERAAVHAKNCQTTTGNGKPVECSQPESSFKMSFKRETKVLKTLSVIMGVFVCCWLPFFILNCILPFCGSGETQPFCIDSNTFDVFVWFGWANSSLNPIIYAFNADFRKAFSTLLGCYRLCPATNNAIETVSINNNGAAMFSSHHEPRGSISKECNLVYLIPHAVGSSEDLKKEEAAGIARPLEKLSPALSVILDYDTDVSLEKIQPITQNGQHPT
For another test, the target named is T3, D(4) dopamine receptor (Homo sapiens, UniProt P21917).
T3 sequence (P21917 whole entry): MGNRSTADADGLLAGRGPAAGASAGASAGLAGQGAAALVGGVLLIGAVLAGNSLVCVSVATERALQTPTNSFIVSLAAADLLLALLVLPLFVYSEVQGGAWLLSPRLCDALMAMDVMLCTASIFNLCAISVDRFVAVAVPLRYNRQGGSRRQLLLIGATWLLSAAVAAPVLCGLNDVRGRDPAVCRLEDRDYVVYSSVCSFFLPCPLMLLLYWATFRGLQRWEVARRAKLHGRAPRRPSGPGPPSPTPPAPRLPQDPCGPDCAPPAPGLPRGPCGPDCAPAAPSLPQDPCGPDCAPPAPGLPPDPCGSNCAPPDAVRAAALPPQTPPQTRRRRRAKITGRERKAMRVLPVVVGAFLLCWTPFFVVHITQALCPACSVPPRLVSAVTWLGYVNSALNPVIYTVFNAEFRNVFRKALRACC

Another test deals with Estrogen receptor beta (Homo sapiens, UniProt Q92731).
Sequence of Estrogen receptor beta (Q92731 whole entry): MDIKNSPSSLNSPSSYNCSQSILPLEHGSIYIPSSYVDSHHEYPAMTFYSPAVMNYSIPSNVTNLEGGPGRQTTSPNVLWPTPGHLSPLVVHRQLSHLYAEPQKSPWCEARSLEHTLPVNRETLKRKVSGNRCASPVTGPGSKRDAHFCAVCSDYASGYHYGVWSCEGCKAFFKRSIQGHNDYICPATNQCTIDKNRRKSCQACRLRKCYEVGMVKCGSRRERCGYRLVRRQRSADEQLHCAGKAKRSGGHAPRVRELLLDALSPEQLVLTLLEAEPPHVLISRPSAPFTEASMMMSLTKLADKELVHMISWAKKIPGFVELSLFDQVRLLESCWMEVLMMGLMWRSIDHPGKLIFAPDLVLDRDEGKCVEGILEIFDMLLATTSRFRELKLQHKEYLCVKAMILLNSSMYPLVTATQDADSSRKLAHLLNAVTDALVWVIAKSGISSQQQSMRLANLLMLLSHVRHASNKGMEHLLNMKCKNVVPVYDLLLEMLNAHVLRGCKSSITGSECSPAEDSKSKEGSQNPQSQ
Also: assay procedure not described here.

Sequence of Beta-3 adrenergic receptor (P13945 whole entry): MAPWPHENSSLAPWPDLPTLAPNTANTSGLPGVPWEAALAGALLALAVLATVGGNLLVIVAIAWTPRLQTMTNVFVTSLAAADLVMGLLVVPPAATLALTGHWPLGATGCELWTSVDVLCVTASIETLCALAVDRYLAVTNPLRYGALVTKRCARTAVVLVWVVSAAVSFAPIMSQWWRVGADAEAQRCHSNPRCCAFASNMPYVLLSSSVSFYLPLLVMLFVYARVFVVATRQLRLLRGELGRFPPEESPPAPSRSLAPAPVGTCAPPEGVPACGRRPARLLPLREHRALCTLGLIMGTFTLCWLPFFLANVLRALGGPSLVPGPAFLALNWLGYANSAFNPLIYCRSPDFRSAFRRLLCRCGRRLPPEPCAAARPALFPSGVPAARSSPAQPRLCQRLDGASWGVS

On to `CCC[C@H](NC(=O)[C@@H]1[C@H]2CCC[C@H]2CN1C(=O)[C@@H](NC(=O)[C@@H](NC(=O)c1cnccn1)C1CCCCC1)C(C)(C)C)C(=O)C(=O)NC1CC1`, for which the half-maximal activity concentration (AC50) in test [1] is greater than 30 µM; on Androgen receptor, greater than 30 µM; in test [2], greater than 10 µM; in test [3] it was greater than 10 µM; on D(1A) dopamine receptor it was greater than 10 µM.

Turning to `OC1(c2ccc(Cl)cc2)c2ccccc2C2=NCCN21` (stereo not drawn) [MAZINDOL], the half-maximal activity concentration (AC50) in test [1] was greater than 30 µM; at Androgen receptor, greater than 30 µM; in test [2] it was greater than 10 µM; on D(4) dopamine receptor it was greater than 10 µM; on Estrogen receptor beta, greater than 30 µM; in test [3], greater than 10 µM. On D(1A) dopamine receptor, the AC50 is greater than 10 µM.

As for `CCC1(c2ccccc2)CCC(=O)NC1=O` (stereo not drawn) [GLUTETHIMIDE], the AC50 at Androgen receptor is greater than 10 µM.
